According to paper PMC9134315, “Systemic Administration of a Brain Permeable Cdk5 Inhibitor Alters Neurobehavior” (Frontiers in Pharmacology, 2022):

How the values were obtained:
Cdk5 [1] = target: T1, Cdk5 (Mus musculus, UniProt P49615); assay: In vivo Cdk5 inhibition after I.V. injection, immunoblot of striatal phospho-Ser549 synapsin I; details: 50 mg/kg I.V., striatal lysates, various time points, data not shown
T1 construct: from tissue; host or cells: striatum of wild-type C57BL/6 mice (acute slices, or lysates after I.V. dosing)
T1 sequence (P49615 whole entry): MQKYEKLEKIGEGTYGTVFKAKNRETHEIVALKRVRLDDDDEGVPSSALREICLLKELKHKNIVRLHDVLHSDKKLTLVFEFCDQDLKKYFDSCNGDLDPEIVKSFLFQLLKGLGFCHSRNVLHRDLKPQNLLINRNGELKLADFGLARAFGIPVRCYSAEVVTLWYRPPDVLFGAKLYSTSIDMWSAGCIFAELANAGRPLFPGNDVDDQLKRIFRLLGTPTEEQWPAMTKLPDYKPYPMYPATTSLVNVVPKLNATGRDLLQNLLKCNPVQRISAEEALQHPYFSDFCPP
T1 sequence (P61809 2-307 partner limits assumed): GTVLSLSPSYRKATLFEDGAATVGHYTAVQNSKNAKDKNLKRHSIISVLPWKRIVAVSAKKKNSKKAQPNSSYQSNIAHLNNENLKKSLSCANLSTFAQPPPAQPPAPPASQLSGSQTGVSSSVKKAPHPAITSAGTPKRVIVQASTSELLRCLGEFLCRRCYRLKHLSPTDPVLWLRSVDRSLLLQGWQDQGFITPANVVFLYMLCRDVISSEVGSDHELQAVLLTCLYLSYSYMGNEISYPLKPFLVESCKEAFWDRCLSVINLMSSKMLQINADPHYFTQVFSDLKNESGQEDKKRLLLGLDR
Description: The wild-type group housed male C57BL/6 mice 10–12 weeks of age were used for all in vivo, ex vivo, and behavioral studies. This age range was selected to be consistent with previous studies of conditional Cdk5 knockout mice ([Plattner et al., 2015]). 25–106 was administered in a 20-fold dose range intravenously (I.V.) at 10, 50, 100, and 200 mg/kg for pharmacokinetic studies. This delivery mode was used as I.V. injections to avoid first-pass drug metabolism observed using other injection methods ([Pond and Tozer, 1984]). […] All animal experiments were performed under approved protocols by the University of Alabama at Birmingham (UAB) Institutional Animal Care and Use Committees and in accordance with the guidelines of the Animal Welfare Act and the Guide for the Care and Use of Laboratory Animals.
(§1) Immunoblotting was performed as previously described ([Umfress et al., 2021]). Mouse brains were rapidly dissected in an ice-cold solution of 50 mM NaF/PBS. The regions of interest were further dissected out and rapidly snap-frozen in dry ice. The frozen tissue was homogenized in boiling lysis buffer (1% SDS, 50 mM NaF) and sonicated with several three to four pulses at 40 dB. The samples were subsequently denatured at 90°C for 5 min. Protein concentration was determined by the BCA assay, and homogenates were diluted in 4x sample buffer, separated by SDS-PAGE, and transferred to 0.45-µm nitrocellulose membranes, blocked with 5% milk solution (1 h), and probed with primary antibodies (overnight). The following antibodies were used in the study: phospho-Ser549 synapsin I (Phosphosolutions), total synapsin I (Phosphosolutions), actin (Invitrogen), phospho-Ser1116 (in-house) ([Plattner et al., 2014]), and total NR2B (Phosphosolutions), phospho-Thr75, and total DARPP-32 (Cell Signaling Technology). Visualization was performed using the Licor CLX membrane scanner and Licor secondary antibodies.
Each of the four compounds tested in brain slices was further screened for their ability to penetrate the blood–brain barrier (BBB) and inhibit Cdk5-dependent activity in vivo. For these studies, cohorts of mice were treated with each compound via I.V. injection (50 mg/kg), and brain striatal lysates from various time points were subjected to quantitative immunoblot analysis for phosho-Ser549 Synapsin I levels. Three compounds, 20–107, 20–132, and 20–143, had no effect on Cdk5 activity compared to that of vehicle alone (data not shown). […] Moreover, this effect persisted even 24 h after dosing.

Cdk5 [2] = target: T1, Cdk5; assay: Ex vivo acute striatal brain slice pharmacology, immunoblot of phospho-Thr75 DARPP-32 and phospho-Ser1116 NR2B; format: cell-based; details: acute striatal slices, 1 h treatment, 0-10 µM; read-out: IC50, Cdk5-dependent phosphorylation of DARPP-32 and NR2B
Description: Brain slice pharmacology was performed as described ([Nishi et al., 2000]). Briefly, the mice were decapitated, and the brains were rapidly dissected and submerged in ice-cold normal Kreb’s solution (124 mM NaCl, 4 mM KCl, 26 mM NaHCO3, 1.25 mM KH2PO4, 1.5 mM MgSO4, 10 mM D-glucose, and 1.5 mM CaCl2). The brains were subsequently sectioned into normal Kreb’s solution at 350 µ thickness. The brain slices were transferred to a 30°C solution of normal Kreb’s containing 10 µM deaminase for a 1-h recovery period. The sections were then incubated in normal Kreb’s solution with and without the indicated compounds across the dose and time ranges indicated. The sections were rapidly snap-frozen in dry ice to terminate treatment regimes.
as §1
In order to assess the functional inhibition of Cdk5 in intact brain tissue by the four compounds summarized in Figure 1, acutely prepared striatal slices were treated in a dose-dependent manner (0, 0.25, 0.5, 1, 5, and 10 µM) with each inhibitor for 1 h, and Cdk5 activity was assessed via immunoblotting the phosphorylation of established Cdk5 sites, phospho-Thr75 DARPP-32 and phospho-Ser1116 NR2B ([Bibb et al., 1999]; [Plattner et al., 2014]).

[3] = ref Vita et al., 2005; cited from earlier work

| effect on Cdk5 activity (phospho-Ser549 synapsin I) compared to vehicle (Cdk5 [1]) | IC50 (Cdk5 [2]) | Compound | distribution into the brain [3] | half-life and active metabolites [3] |
| --- | --- | --- | --- | --- |
| no effect | 500 to 1000 nM | O=C(C/C=C/c1ccccc1)Nc1cc(C2CCC2)[nH]n1 [25–132] |  |  |
| no effect | 500 to 1000 nM | COc1ccc(CC(=O)Nc2cc(C3CCC3)[nH]n2)cc1OC [25–143] |  |  |
|  |  | CC[C@H](CO)Nc1nc(NCc2ccccc2)c2ncn(C(C)C)c2n1 [roscovitine] | could distribute into the brain | rapid half-life with no detectable active metabolites |
| no effect | 500 to 1000 nM | O=C(Cc1ccc2c(c1)OCCO2)Nc1cc(C2CCC2)[nH]n1 [25–107] |  |  |
